ChEMBL document CHEMBL1145750, “Synthesis and biological evaluation of 2'-methyl taxoids derived from baccatin III and 14beta-OH-baccatin III 1,14-carbonate” (J Med Chem, 2003)

Tests used:
A2780 [1] = test: In vitro cytotoxicity against A2780ADR cell line; conditions: Homo sapiens
A2780 [2] = test: In vitro cytotoxicity against A2780CIS cell line; conditions: Homo sapiens
A2780 [3] = test: In vitro cytotoxicity against A2780TAX cell line; conditions: Homo sapiens
A2780 [4] = test: In vitro cytotoxicity against A2780 cell line; conditions: Homo sapiens
MCF7R [5] = test: In vitro cytotoxicity against MCF7-R cell line; assay type: functional, cell-based; conditions: Homo sapiens
MCF7 = test: In vitro cytotoxicity against MCF-7 cell line; assay type: functional, cell-based; conditions: Homo sapiens
[6] = Potency differential in resistant to that of sensitive A2780ADR cell line; assay type: functional, A2780 ADR
[7] = Potency differential in resistant to that of sensitive A2780CIS cell line; assay type: functional
[8] = Potency differential in resistant to that of sensitive A2780TAX cell line; assay type: functional
[9] = (§1) Potency differential in resistant to that of sensitive MCF7-R cell line; assay type: functional
MCF7R [10] = test: as §1; assay type: functional, cell-based; conditions: Homo sapiens

CC(=O)O[C@H]1C(=O)[C@@]2(C)[C@H]([C@H](OC(=O)c3ccccc3)[C@]34OC(=O)O[C@H]3[C@H](OC(=O)[C@](C)(O)[C@@H](NC(=O)OC(C)(C)C)c3ccco3)C(C)=C1C4(C)C)[C@]1(OC(C)=O)CO[C@@H]1C[C@@H]2O
IC50 (A2780 [1]): 27.1 nM
IC50 (A2780 [2]): 2.5 nM
IC50 (A2780 [3]): 30.9 nM
IC50 (A2780 [4]): 5.9 nM
IC50 (MCF7R [5]): 16 nM
IC50 (MCF7): 1.7 nM
Ratio [6]: 4
Ratio [7]: 0.4
Ratio [8]: 5
Ratio [9]: 9.4

CC(=O)O[C@H]1C(=O)[C@@]2(C)[C@H]([C@H](OC(=O)c3ccccc3)[C@]34OC(=O)O[C@H]3[C@H](OC(=O)[C@](C)(O)[C@@H](NC(=O)OC(C)(C)C)c3ccccc3)C(C)=C1C4(C)C)[C@]1(OC(C)=O)CO[C@@H]1C[C@@H]2O
IC50 (A2780 [1]): 52.9 nM
IC50 (A2780 [2]): 1.7 nM
IC50 (A2780 [3]): 299 nM
IC50 (A2780 [4]): 2.5 nM
Ratio [6]: 21
Ratio [7]: 0.7
Ratio [8]: 118

CC(=O)O[C@H]1C(=O)[C@@]2(C)[C@H]([C@H](OC(=O)c3ccccc3)[C@]3(O)C[C@H](OC(=O)[C@](C)(O)[C@@H](NC(=O)c4ccccc4)c4ccco4)C(C)=C1C3(C)C)[C@]1(OC(C)=O)CO[C@@H]1C[C@@H]2O
IC50 (A2780 [1]): 61.4 nM
IC50 (A2780 [2]): 2.9 nM
IC50 (A2780 [3]): 420 nM
IC50 (A2780 [4]): 3.1 nM
Ratio [6]: 20
Ratio [7]: 0.9
Ratio [8]: 135

CC(=O)O[C@H]1C(=O)[C@@]2(C)[C@H]([C@H](OC(=O)c3ccccc3)[C@]3(O)C[C@H](OC(=O)[C@](C)(O)[C@@H](NC(=O)OC(C)(C)C)c4ccco4)C(C)=C1C3(C)C)[C@]1(OC(C)=O)CO[C@@H]1C[C@@H]2O
IC50 (A2780 [1]): 41.3 nM
IC50 (A2780 [2]): 3.3 nM
IC50 (A2780 [3]): 312 nM
IC50 (A2780 [4]): 2.9 nM
Ratio [6]: 14
Ratio [7]: 1.1
Ratio [8]: 107

CC(=O)O[C@H]1C(=O)[C@@]2(C)[C@H]([C@H](OC(=O)c3ccccc3)[C@]34OC(=O)O[C@H]3[C@H](OC(=O)[C@](C)(O)[C@@H](NC(=O)OC(C)(C)C)C(F)(F)F)C(C)=C1C4(C)C)[C@]1(OC(C)=O)CO[C@@H]1C[C@@H]2O
IC50 (A2780 [1]): 79.3 nM
IC50 (A2780 [2]): 2.8 nM
IC50 (A2780 [3]): 285 nM
IC50 (A2780 [4]): 4.6 nM
Ratio [6]: 17
Ratio [7]: 0.6
Ratio [8]: 61

CC(=O)O[C@H]1C(=O)[C@@]2(C)[C@H]([C@H](OC(=O)c3ccccc3)[C@]34OC(=O)O[C@H]3[C@H](OC(=O)[C@H](O)[C@H](CC(C)C)NC(=O)OC(C)(C)C)C(C)=C1C4(C)C)[C@]1(OC(C)=O)CO[C@@H]1C[C@@H]2O [ORTATAXEL]
IC50 (A2780 [1]): 63 nM
IC50 (A2780 [2]): 3.6 nM
IC50 (A2780 [3]): 56 nM
IC50 (A2780 [4]): 4.8 nM
IC50 (MCF7R [5]): 36 nM
Ratio (MCF7R [10]): 33
IC50 (MCF7): 1.1 nM
Ratio [6]: 13
Ratio [7]: 0.7
Ratio [8]: 12
